We go through two compounds from patent publication US10259843B2, “Cyclic tetrapeptide stereoisomers” (University of Kansas, priority 2014, dated 2019).

“Also recorded” adds a separate entry of the source. Non-standard residues stand in square brackets, D forms with d. Residues, ends and D or L forms follow the SMILES beside them.

Series [1] can be described thus: other pain models (formalin, acetic acid stretching, nerve constriction; FIGS. 1-3B). Particulars: in vivo. The source says: These models are based on the formalin assay, the acetic acid stretching assay, and the nerve constriction assay. The formalin and acetic acid stretching assays are indicative of activity against inflammatory pain (i.e., nociceptive pain) and the nerve constriction assay is indicative of activity against neuropathic pain.

The target in series [2] is delta opioid receptor (DOR) (Homo sapiens, UniProt P41143). The series can be described thus: radioligand binding assay, delta opioid receptor affinity. Particulars: n in parentheses; read-out: Ki (nM ± SEM) DOR. Here is the method: (§1) The peptides of Table 1 shown below in Tables 3 and 4 were evaluated in radioligand binding assays for mu, kappa and delta opioid receptor affinities in vitro, and in the mouse 55° C. warm water tail withdrawal assay in vivo for antinociception and opioid antagonist activity.
delta opioid receptor (DOR), sequence (P41143 whole entry): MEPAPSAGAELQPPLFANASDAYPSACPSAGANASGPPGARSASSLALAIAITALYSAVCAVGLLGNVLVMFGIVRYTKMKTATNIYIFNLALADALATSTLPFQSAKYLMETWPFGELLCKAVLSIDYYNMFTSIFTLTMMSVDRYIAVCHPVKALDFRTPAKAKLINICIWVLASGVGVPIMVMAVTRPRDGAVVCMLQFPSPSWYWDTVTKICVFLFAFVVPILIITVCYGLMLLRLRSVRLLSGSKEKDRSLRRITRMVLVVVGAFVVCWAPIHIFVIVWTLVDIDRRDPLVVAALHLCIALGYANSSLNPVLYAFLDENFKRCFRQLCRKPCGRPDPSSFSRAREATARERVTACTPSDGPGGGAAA

A short description of the next series: acute tolerance model. Particulars: in vivo.
Another series can be described thus: respiratory depression. Details: key: ✓ indicates tested (if no other comment then no significant effect). It counts as in vivo.
The target of the next series is mu opioid receptor (MOR) (Homo sapiens, UniProt P35372). The series can be described thus: radioligand binding assay, mu opioid receptor affinity. To be noted: n in parentheses; read-out: Ki (nM ± SEM) MOR. As to the method:
as §1

Another series can be described thus: formalin assay. It counts as in vivo, rodent. Particulars: 10 mg/kg oral, vs saline i.p. Here is the method: It entails the injection of a dilute solution of formalin into the surface of the rodent's hindpaw, followed by the scoring of stereotypical behaviors such as flinching, licking, and biting of the affected hindpaw. The behaviors last for approximately 1 hour, with the early or acute stage (directly after injection) reflecting direct activation of nociceptors and the late or tonic phase (15 to 20 minutes after the injection) reflecting inflammation.

Series [3] is described as follows: nerve constriction assay for neuropathic pain. In kind it is in vivo, rodent. To be noted: 3 mg/kg, 10 mg/kg, and 30 mg/kg; compared to 50 mg/kg gabapentin. As to the method:
In the nerve constriction assay, a nerve of a subject rodent is chronically constricted or cuffed and then the animal is assessed for response to pain stimuli such a paw withdrawal. […] Gabapentin is an accepted treatment for neuropathic pain.

In series [4] the test system is opioid receptors (KOR, MOR, DOR). The series can be described thus: mouse 55° C. warm water tail withdrawal assay, opioid antagonist activity. In kind it is in vivo. To be noted: for Antagonism (dose, nmol): 30 nmol. As to the method:
as §1

The nature of series [5]: acetic acid stretching assay. It counts as in vivo. To be noted: 10 mg/kg and 30 mg/kg. Here is the method:
The acetic acid stretching assay is a model for visceral pain and is the most popular chemical assay of nociception. In the assay, subjects are given a subcutaneous (s.c.) injection of drug or vehicle 60 min before an intraperitoneal (i.p.) injection of 0.6% acetic acid. After administration of the acetic acid, the subjects are placed in clear cages (11×7×5 in) and scored for abdominal stretches during a 20 min observation period. Stretching was defined as body contortions, belly pressing, and extension of the hind limbs from which visceral nociception was inferred. […] And while the effect of 3607 was not as pronounced as with morphine, the observed reductions in stretching were significant, indication that 3607 has a significant pain reduction effect.

A short description of series [6]: rotorod test for sedation and motor coordination. In kind it is in vivo. Details: key: ✓ indicates tested (if no other comment then no significant effect). To be noted: 10 mg/kg, p.o.
Series [7] in a line: conditioned place response assay. To be noted: oral administration of the peptides.
A short description of the next series: locomotion (CLAMS). It counts as in vivo. Details: key: ✓ indicates tested (if no other comment then no significant effect). Particulars: 10 mg/kg, p.o.
In series [8] the target is kappa opioid receptor (KOR) (Homo sapiens, UniProt P41145). The series can be described thus: radioligand binding assay, kappa opioid receptor affinity. To be noted: n in parentheses; read-out: Ki (nM ± SEM) KOR. Here is the method: as §1
kappa opioid receptor (KOR), sequence (P41145 whole entry): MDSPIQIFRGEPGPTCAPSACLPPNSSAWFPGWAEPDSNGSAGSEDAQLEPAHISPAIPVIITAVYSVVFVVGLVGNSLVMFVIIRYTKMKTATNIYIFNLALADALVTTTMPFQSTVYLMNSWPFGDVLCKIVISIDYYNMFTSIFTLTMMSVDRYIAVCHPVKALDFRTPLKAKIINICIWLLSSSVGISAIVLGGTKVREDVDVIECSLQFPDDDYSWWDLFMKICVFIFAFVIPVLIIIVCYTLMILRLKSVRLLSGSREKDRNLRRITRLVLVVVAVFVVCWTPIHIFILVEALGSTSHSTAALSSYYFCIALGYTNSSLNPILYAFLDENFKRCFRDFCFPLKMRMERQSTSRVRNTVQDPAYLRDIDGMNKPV
Series [9] in a line: mouse 55° C. warm water tail withdrawal assay, antinociception. It counts as in vivo. Particulars: for ED50 (95% CI) i.c.v. / ED50 (95% CI) p.o.: antinociception; for Receptors involved: opioid receptors contributing to antinociception. Here is the method:
as §1

A short description of series [10]: stress-induced reinstatement of cocaine seeking behavior, conditioned place preference assay. Particulars: in vivo. The source says:
In interesting comparison to the other cyclic tetrapeptides, compound 3613 (DDDD) is a mu opioid receptor (MOR) agonist and delta opioid receptor (DOR) antagonist. MOR agonists/DOR antagonists are of great interest because of their decreased liability profile (decreased addiction potential and liability profile such as tolerance) compared to MOR agonists like morphine.

mu opioid receptor (MOR), sequence (P35372 whole entry): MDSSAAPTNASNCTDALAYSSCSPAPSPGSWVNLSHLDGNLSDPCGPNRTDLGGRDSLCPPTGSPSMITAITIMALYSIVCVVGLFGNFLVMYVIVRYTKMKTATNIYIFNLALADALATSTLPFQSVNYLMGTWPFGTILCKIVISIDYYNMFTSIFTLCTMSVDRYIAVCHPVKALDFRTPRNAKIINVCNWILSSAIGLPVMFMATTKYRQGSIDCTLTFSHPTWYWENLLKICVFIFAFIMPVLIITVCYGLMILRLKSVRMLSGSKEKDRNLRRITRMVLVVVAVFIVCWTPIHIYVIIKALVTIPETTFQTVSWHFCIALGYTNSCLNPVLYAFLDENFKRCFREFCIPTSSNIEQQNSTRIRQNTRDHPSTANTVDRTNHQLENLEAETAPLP

With `O=C1N[C@H](Cc2ccccc2)C(=O)N2CCC[C@@H]2C(=O)N[C@H](Cc2ccccc2)C(=O)N[C@H]1Cc1c[nH]c2ccccc12` [JVA 3607, cyclo-[D-Phe-D-Pro-D-Phe-Trp]] (cyclo([dF][dP][dF]W)), the “analgesic activity in other pain models” value in series [1] is “significant analgesic properties; also recorded: show activity against pain”. Moreover, the inhibitory constant (Ki) in series [2] was more than 10000 nM. The “Acute Tolerance ED50 shift” value in the series “acute tolerance model” came out at 5.19 fold. Moreover, the “Respiratory depression 10 mg/kg p.o.” value in “respiratory depression” is given as “✓”. Besides, the inhibition constant Ki on mu opioid receptor (MOR) was 7780 ± 410 nM. Also, the “time spent licking after formalin administration” value in “formalin assay” is listed as “significant reduction”. For the same compound, the “relief of neuropathic pain” value in series [3] is listed as “significant relief of neuropathic pain”. Besides, in series [4], the “Antagonism (dose, nmol)” value was “None (30)”. Moreover, the “antinociception (abdominal stretches)” value in series [5] was “significant antinociception”. Besides, the “Rotorod (10 mg/kg, p.o.)” value in [6] is given as “✓”. The “conditioned place preference (drug seeking behavior) or conditioned place aversion” value in series [7] is on record as “no evidence of inducing drug seeking behavior; also recorded: do not show evidence of conditioned place preference (drug seeking behavior) or conditioned place aversion”. For the same compound, in “locomotion (CLAMS)”, the “Locomotion (CLAMS, 10 mg/kg, p.o.)” value was “✓”. The inhibitory constant (Ki) in series [8] was 2560 ± 480 nM. In addition, in [9], the “ED50 (95% CI) i.c.v.” value worked out at 1.00 nmol; the “ED50 (95% CI) p.o.” value was 4.12 mg/kg; the Receptors involved entry is on record as “mu opioid receptors (MOR) are not involved; also recorded: KOR, DOR”.

`O=C1N[C@H](Cc2ccccc2)C(=O)N[C@H](Cc2c[nH]c3ccccc23)C(=O)N[C@H](Cc2ccccc2)C(=O)N2CCC[C@H]12` [JVA 3613, cyclo[D-Phe-D-Pro-D-Phe-D-Trp]] (cyclo([dF][dP][dF][dW])): the results for the Ki (in [2]; at mu opioid receptor (MOR); in [8]) were more than 10000 nM, more than 10000 nM and 2010 ± 270 nM, respectively. Further, in the series “respiratory depression”, the “Respiratory depression 10 mg/kg p.o.” value is “✓”. Moreover, the “Antagonism (dose, nmol)” value in series [4] is given as “DOR (30)”. The “Antagonism (opioid receptor antagonised in vivo)” value in series [4] (dose not given) is reported as “exhibit DOR antagonist activity”. Besides, the “Rotorod (10 mg/kg, p.o.)” value in [6] was “✓”. The “Locomotion (CLAMS, 10 mg/kg, p.o.)” value in “locomotion (CLAMS)” is listed as “✓”. For the same compound, the “prevention of stress-induced reinstatement of cocaine seeking behavior” value in series [10] is listed as “effective in preventing stress-induced reinstatement of cocaine seeking behavior”. Further, the “ED50 (95% CI) i.c.v.” value in [9] was 0.51 nmol. Moreover, the “ED50 (95% CI) p.o.” value in [9] was determined as 2.47 mg/kg. In series [9], the Receptors involved entry is “kappa opioid receptors (KOR) are not involved; also recorded: DOR, MOR”.
